The source made the active and inactive calls. No cut-off for these calls is given here.
Columns and labels:
[1] = biological target: T1, Calpain-2 catalytic subunit (Homo sapiens) (UniProt P17655); assay: Inhibition of m-calpain assessed as attenuation of substrate cleavage at 1 uM by FRET
T1 sequence (whole entry): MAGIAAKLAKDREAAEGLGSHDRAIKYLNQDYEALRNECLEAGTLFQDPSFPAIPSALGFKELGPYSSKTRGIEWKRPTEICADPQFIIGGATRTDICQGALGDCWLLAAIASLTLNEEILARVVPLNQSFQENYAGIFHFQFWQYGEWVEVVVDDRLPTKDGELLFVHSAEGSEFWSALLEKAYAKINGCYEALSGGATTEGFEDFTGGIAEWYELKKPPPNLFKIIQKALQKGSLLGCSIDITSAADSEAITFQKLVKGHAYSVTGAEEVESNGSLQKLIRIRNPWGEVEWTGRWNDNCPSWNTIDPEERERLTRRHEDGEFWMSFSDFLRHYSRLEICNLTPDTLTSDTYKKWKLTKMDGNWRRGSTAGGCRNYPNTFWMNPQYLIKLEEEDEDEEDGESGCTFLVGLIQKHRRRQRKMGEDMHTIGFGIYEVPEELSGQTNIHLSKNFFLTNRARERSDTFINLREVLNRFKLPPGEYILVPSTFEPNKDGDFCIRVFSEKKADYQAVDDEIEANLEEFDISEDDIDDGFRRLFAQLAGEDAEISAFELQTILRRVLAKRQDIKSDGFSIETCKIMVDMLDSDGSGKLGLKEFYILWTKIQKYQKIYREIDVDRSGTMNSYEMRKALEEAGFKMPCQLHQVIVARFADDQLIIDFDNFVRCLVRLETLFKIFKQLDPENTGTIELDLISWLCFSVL

[2] = biological target: T2, Calpain-1 catalytic subunit (Homo sapiens) (UniProt P07384); assay: Inhibition of calpain 1 protease core assessed as attenuation of substrate cleavage at 50 uM by FRET
T2 sequence (whole entry): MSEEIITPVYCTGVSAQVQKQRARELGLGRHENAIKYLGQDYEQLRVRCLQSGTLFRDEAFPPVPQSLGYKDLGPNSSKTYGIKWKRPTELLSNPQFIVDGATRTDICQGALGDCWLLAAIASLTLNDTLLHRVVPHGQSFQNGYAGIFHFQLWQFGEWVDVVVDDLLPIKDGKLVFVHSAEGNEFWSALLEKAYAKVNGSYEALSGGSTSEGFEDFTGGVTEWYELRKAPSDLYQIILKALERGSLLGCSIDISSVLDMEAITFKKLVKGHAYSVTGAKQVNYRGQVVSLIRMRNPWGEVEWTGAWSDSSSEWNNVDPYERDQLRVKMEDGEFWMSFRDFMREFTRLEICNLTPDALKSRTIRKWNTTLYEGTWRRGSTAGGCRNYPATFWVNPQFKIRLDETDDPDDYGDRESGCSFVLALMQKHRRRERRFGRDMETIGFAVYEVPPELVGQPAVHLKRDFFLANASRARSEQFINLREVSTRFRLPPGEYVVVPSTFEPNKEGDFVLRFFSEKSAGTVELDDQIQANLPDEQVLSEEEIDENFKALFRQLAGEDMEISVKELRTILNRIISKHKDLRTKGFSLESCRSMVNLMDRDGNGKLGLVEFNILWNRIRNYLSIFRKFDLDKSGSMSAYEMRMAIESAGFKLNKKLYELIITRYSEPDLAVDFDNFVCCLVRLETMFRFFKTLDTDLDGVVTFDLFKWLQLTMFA

Structure (SMILES) | Activity [1] | Activity [2]
CC[C@H](NC(=O)[C@H](CC(C)C)NC(=O)OCc1ccccc1)C(=O)C(=O)NCCCN1CCN(C)CC1 | Active | Active
CC[C@H](NC(=O)[C@H](CC(C)C)NC(=O)OCc1ccccc1)C(=O)C(=O)NCCCn1cnc2c(N)ncnc21 | Active | Active

— ChEMBL document CHEMBL1139428, “Cocrystal structures of primed side-extending alpha-ketoamide inhibitors reveal novel calpain-inhibitor aromatic interactions” (J Med Chem, 2008)
